Measured values taken from the NIST ThermoML archive (doi:10.1016/j.fluid.2012.08.003).
Several values for one entry are separate records, joined by “and”; a condition that tells them apart may be missing. Equal values may be shown once. Numbers after ± are expanded uncertainties.

Settings: Liquid, Transpiration method

CCCCCCCOC=O [heptyl methanoate]
vapor or sublimation pressure (276.1 K): 0.0215 ± 0.0011 kPa | vapor or sublimation pressure (277.6 K): 0.02468 ± 0.0012 kPa | vapor or sublimation pressure (278.6 K): 0.02656 ± 0.0013 kPa | vapor or sublimation pressure (280.4 K): 0.03187 ± 0.0016 kPa | vapor or sublimation pressure (283.3 K): 0.04168 ± 0.0021 kPa | vapor or sublimation pressure (288.3 K): 0.06125 ± 0.0031 kPa | vapor or sublimation pressure (293.2 K): 0.0889 ± 0.0044 kPa and 0.08971 ± 0.0045 kPa | vapor or sublimation pressure (293.3 K): 0.08835 ± 0.0044 kPa | vapor or sublimation pressure (298.3 K): 0.13 ± 0.0065 kPa and 0.1304 ± 0.0065 kPa | vapor or sublimation pressure (303.3 K): 0.183 ± 0.0092 kPa | vapor or sublimation pressure (308.2 K): 0.257 ± 0.013 kPa | vapor or sublimation pressure (311 K): 0.3176 ± 0.016 kPa | vapor or sublimation pressure (313.3 K): 0.3549 ± 0.018 kPa | vapor or sublimation pressure (316.4 K): 0.4359 ± 0.022 kPa

CCCCCCOC=O [hexyl methanoate]
vapor or sublimation pressure (275.4 K): 0.07241 ± 0.0036 kPa | vapor or sublimation pressure (278.5 K): 0.09094 ± 0.0046 kPa | vapor or sublimation pressure (283.3 K): 0.1319 ± 0.0066 kPa | vapor or sublimation pressure (288.2 K): 0.1935 ± 0.0097 kPa | vapor or sublimation pressure (293.3 K): 0.2694 ± 0.014 kPa | vapor or sublimation pressure (293.4 K): 0.2753 ± 0.014 kPa | vapor or sublimation pressure (298.4 K): 0.4056 ± 0.02 kPa and 0.4085 ± 0.02 kPa | vapor or sublimation pressure (303.2 K): 0.5577 ± 0.028 kPa | vapor or sublimation pressure (303.3 K): 0.5448 ± 0.027 kPa | vapor or sublimation pressure (308.3 K): 0.7473 ± 0.037 kPa and 0.7588 ± 0.038 kPa | vapor or sublimation pressure (313.4 K): 1.016 ± 0.051 kPa and 1.013 ± 0.051 kPa

CCCCCCOC(=O)CC [hexyl propanoate]
vapor or sublimation pressure (278.3 K): 0.01764 ± 0.00088 kPa | vapor or sublimation pressure (280.7 K): 0.0221 ± 0.0011 kPa | vapor or sublimation pressure (283.4 K): 0.02827 ± 0.0014 kPa | vapor or sublimation pressure (285.8 K): 0.03417 ± 0.0017 kPa | vapor or sublimation pressure (288.2 K): 0.04354 ± 0.0022 kPa | vapor or sublimation pressure (298.4 K): 0.09932 ± 0.005 kPa | vapor or sublimation pressure (303.2 K): 0.1369 ± 0.0069 kPa and 0.1363 ± 0.0068 kPa | vapor or sublimation pressure (308.2 K): 0.2024 ± 0.01 kPa | vapor or sublimation pressure (313.3 K): 0.2793 ± 0.014 kPa | vapor or sublimation pressure (318.5 K): 0.3993 ± 0.02 kPa | vapor or sublimation pressure (323.4 K): 0.5422 ± 0.027 kPa | vapor or sublimation pressure (326.4 K): 0.6804 ± 0.034 kPa | vapor or sublimation pressure (328.4 K): 0.7646 ± 0.038 kPa | vapor or sublimation pressure (330.6 K): 0.8602 ± 0.043 kPa | vapor or sublimation pressure (333.3 K): 0.9961 ± 0.05 kPa

CCCCCCCCOC=O [octyl methanoate]
vapor or sublimation pressure (283.3 K): 0.01298 ± 0.0026 kPa | vapor or sublimation pressure (285.7 K): 0.01585 ± 0.0032 kPa | vapor or sublimation pressure (288.2 K): 0.01973 ± 0.004 kPa | vapor or sublimation pressure (290.8 K): 0.02392 ± 0.0049 kPa | vapor or sublimation pressure (293.3 K): 0.02964 ± 0.006 kPa | vapor or sublimation pressure (298.4 K): 0.04462 ± 0.0091 kPa | vapor or sublimation pressure (303.2 K): 0.0622 ± 0.013 kPa and 0.06388 ± 0.013 kPa | vapor or sublimation pressure (308.2 K): 0.09465 ± 0.019 kPa | vapor or sublimation pressure (313.5 K): 0.1368 ± 0.028 kPa | vapor or sublimation pressure (318.5 K): 0.1894 ± 0.038 kPa | vapor or sublimation pressure (323.5 K): 0.2656 ± 0.054 kPa | vapor or sublimation pressure (328.4 K): 0.3665 ± 0.074 kPa | vapor or sublimation pressure (331.3 K): 0.4318 ± 0.088 kPa | vapor or sublimation pressure (333.4 K): 0.4943 ± 0.1 kPa | vapor or sublimation pressure (335.3 K): 0.5488 ± 0.11 kPa | vapor or sublimation pressure (338.3 K): 0.6635 ± 0.13 kPa

CCCCCCCCOC(=O)CC [octyl propanoate]
vapor or sublimation pressure (293.3 K): 0.00465 ± 0.00023 kPa | vapor or sublimation pressure (295.7 K): 0.00575 ± 0.00029 kPa | vapor or sublimation pressure (298.4 K): 0.00732 ± 0.00037 kPa | vapor or sublimation pressure (300.3 K): 0.00883 ± 0.00044 kPa | vapor or sublimation pressure (303.3 K): 0.01129 ± 0.00057 kPa | vapor or sublimation pressure (308.3 K): 0.0173 ± 0.00087 kPa | vapor or sublimation pressure (313.4 K): 0.02656 ± 0.0013 kPa | vapor or sublimation pressure (318.5 K): 0.0387 ± 0.0019 kPa | vapor or sublimation pressure (323.4 K): 0.0541 ± 0.0027 kPa | vapor or sublimation pressure (328.5 K): 0.08043 ± 0.004 kPa | vapor or sublimation pressure (333.3 K): 0.1125 ± 0.0056 kPa | vapor or sublimation pressure (338.3 K): 0.155 ± 0.0077 kPa | vapor or sublimation pressure (340.3 K): 0.176 ± 0.0088 kPa | vapor or sublimation pressure (343 K): 0.2098 ± 0.01 kPa | vapor or sublimation pressure (346.4 K): 0.2681 ± 0.013 kPa | vapor or sublimation pressure (348.4 K): 0.2952 ± 0.015 kPa

CCCCCOC(C)=O [pentyl ethanoate]
vapor or sublimation pressure (274.2 K): 0.08539 ± 0.0043 kPa | vapor or sublimation pressure (274.3 K): 0.08709 ± 0.0044 kPa | vapor or sublimation pressure (275.6 K): 0.0953 ± 0.0048 kPa and 0.09555 ± 0.0048 kPa | vapor or sublimation pressure (278.2 K): 0.1145 ± 0.0057 kPa | vapor or sublimation pressure (280.8 K): 0.1396 ± 0.007 kPa | vapor or sublimation pressure (283.2 K): 0.1683 ± 0.0084 kPa | vapor or sublimation pressure (288.2 K): 0.2413 ± 0.012 kPa | vapor or sublimation pressure (293.3 K): 0.343 ± 0.017 kPa | vapor or sublimation pressure (298.4 K): 0.4754 ± 0.024 kPa | vapor or sublimation pressure (303.3 K): 0.658 ± 0.033 kPa | vapor or sublimation pressure (306.7 K): 0.807 ± 0.04 kPa | vapor or sublimation pressure (308.2 K): 0.9035 ± 0.045 kPa | vapor or sublimation pressure (310.6 K): 1.031 ± 0.052 kPa | vapor or sublimation pressure (313.4 K): 1.219 ± 0.061 kPa

CCCCCOC=O [pentyl methanoate]
vapor or sublimation pressure (274.2 K): 0.2283 ± 0.011 kPa | vapor or sublimation pressure (274.3 K): 0.2293 ± 0.011 kPa | vapor or sublimation pressure (275.7 K): 0.2518 ± 0.013 kPa | vapor or sublimation pressure (278.3 K): 0.3006 ± 0.015 kPa and 0.3046 ± 0.015 kPa | vapor or sublimation pressure (281 K): 0.37 ± 0.019 kPa and 0.3692 ± 0.018 kPa | vapor or sublimation pressure (283.2 K): 0.4349 ± 0.022 kPa | vapor or sublimation pressure (288.2 K): 0.61 ± 0.031 kPa | vapor or sublimation pressure (293.3 K): 0.8452 ± 0.042 kPa | vapor or sublimation pressure (298.4 K): 1.161 ± 0.058 kPa | vapor or sublimation pressure (303.3 K): 1.571 ± 0.079 kPa | vapor or sublimation pressure (305.6 K): 1.779 ± 0.089 kPa | vapor or sublimation pressure (308 K): 2.045 ± 0.1 kPa | vapor or sublimation pressure (310.7 K): 2.374 ± 0.12 kPa | vapor or sublimation pressure (313.3 K): 2.757 ± 0.14 kPa

CCCCCOC(=O)CC [pentyl propanoate]
vapor or sublimation pressure (274.1 K): 0.02995 ± 0.0015 kPa | vapor or sublimation pressure (275.5 K): 0.03342 ± 0.0017 kPa | vapor or sublimation pressure (278.3 K): 0.04139 ± 0.0021 kPa | vapor or sublimation pressure (280.9 K): 0.05087 ± 0.0026 kPa | vapor or sublimation pressure (283.4 K): 0.06315 ± 0.0032 kPa | vapor or sublimation pressure (288.3 K): 0.09403 ± 0.0047 kPa | vapor or sublimation pressure (293.3 K): 0.1374 ± 0.0069 kPa | vapor or sublimation pressure (298.4 K): 0.1984 ± 0.0099 kPa | vapor or sublimation pressure (303.3 K): 0.2789 ± 0.014 kPa | vapor or sublimation pressure (308.2 K): 0.3925 ± 0.02 kPa | vapor or sublimation pressure (313.4 K): 0.5328 ± 0.027 kPa | vapor or sublimation pressure (318.5 K): 0.7195 ± 0.036 kPa | vapor or sublimation pressure (320.7 K): 0.8423 ± 0.042 kPa | vapor or sublimation pressure (323.4 K): 0.9568 ± 0.048 kPa | vapor or sublimation pressure (325.6 K): 1.098 ± 0.055 kPa | vapor or sublimation pressure (328.4 K): 1.293 ± 0.065 kPa
